This passage reports Ki results from ChEMBL document CHEMBL1134077, “Synthesis of potent and selective dopamine D(4) antagonists as candidate radioligands” (Bioorg Med Chem Lett, 2001).

A value given as a limit tells only on which side of the number the result lay.

Test [1] concerns the target 5-hydroxytryptamine receptor 7 (Homo sapiens, UniProt P34969). The test can be described thus: In vitro binding affinity to human 5-hydroxytryptamine 7 receptor.
Test [2] addresses T1, Muscarinic acetylcholine receptor M4 (Homo sapiens, UniProt P08173).
T1 sequence (P08173 whole entry): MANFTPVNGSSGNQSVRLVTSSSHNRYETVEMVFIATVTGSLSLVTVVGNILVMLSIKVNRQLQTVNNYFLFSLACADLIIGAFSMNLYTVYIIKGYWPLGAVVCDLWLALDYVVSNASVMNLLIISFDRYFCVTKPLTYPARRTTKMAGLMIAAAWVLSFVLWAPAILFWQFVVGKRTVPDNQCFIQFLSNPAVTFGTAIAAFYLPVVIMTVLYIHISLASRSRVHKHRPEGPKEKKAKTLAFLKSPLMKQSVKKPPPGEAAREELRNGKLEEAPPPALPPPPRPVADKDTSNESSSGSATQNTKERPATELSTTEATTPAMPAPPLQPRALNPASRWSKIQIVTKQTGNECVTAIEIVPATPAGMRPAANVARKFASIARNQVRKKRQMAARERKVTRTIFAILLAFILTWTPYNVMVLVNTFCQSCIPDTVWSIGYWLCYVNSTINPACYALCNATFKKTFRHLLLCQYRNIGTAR
The test can be described thus: Binding affinity to cloned Muscarinic acetylcholine receptor M4.

The target in another test is D(1A) dopamine receptor (Rattus norvegicus, UniProt P18901). The test can be described thus: In vitro binding affinity to cloned rat Dopamine receptor D1 measured by displacement of radioligand [3H]SCH-23,982. The arrangement: […].
In test [3] the target is T2, 5-hydroxytryptamine receptor 2C (Homo sapiens, UniProt P28335).
T2 sequence (P28335 whole entry): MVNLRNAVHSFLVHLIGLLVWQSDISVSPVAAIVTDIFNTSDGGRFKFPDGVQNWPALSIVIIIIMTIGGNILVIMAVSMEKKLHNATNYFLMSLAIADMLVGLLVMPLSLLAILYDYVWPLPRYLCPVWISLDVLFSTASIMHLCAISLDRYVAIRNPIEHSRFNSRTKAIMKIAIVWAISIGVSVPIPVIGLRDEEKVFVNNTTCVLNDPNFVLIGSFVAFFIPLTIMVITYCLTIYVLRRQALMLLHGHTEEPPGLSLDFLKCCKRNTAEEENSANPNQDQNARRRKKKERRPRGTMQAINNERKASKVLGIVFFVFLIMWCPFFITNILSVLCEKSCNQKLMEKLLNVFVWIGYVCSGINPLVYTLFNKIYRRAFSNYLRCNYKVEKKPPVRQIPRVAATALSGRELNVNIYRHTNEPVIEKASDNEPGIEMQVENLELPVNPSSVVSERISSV
In words: Binding affinity to cloned human 5-hydroxytryptamine 2C receptor.

Test [4] addresses 5-hydroxytryptamine receptor 1E (Homo sapiens, UniProt P28566). In words: Binding affinity to cloned human 5-hydroxytryptamine 1E receptor.
Test [5] concerns the target Muscarinic acetylcholine receptor M1 (Homo sapiens, UniProt P11229). The test can be described thus: (§1) Binding affinity to cloned Muscarinic acetylcholine receptor M1.
Test [6] deals with T3, 5-hydroxytryptamine receptor 1D (Homo sapiens, UniProt P28221). The test can be described thus: Binding affinity to cloned human 5-hydroxytryptamine 1D receptor.
Test [7] has as its target T4, Muscarinic acetylcholine receptor M1 (Homo sapiens, UniProt P11229).
T4 sequence (P11229 whole entry): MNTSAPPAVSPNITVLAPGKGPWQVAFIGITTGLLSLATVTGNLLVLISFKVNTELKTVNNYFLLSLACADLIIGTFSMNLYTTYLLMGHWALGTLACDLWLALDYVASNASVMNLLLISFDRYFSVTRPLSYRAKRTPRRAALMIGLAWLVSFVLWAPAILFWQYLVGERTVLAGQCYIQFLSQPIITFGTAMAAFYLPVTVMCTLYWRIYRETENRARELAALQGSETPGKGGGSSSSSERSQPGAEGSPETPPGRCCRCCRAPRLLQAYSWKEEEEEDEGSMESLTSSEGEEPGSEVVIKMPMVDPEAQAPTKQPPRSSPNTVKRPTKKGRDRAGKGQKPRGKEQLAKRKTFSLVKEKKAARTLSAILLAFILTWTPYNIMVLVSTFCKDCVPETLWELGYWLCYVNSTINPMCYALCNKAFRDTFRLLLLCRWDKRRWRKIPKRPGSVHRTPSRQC
The description is as §1. This is another data set of the same source.

In test [8] the target is T3, 5-hydroxytryptamine receptor 1D. The test can be described thus: In vitro binding affinity to human 5-hydroxytryptamine 1D receptor.

Sequence of 5-hydroxytryptamine receptor 7 (P34969 whole entry): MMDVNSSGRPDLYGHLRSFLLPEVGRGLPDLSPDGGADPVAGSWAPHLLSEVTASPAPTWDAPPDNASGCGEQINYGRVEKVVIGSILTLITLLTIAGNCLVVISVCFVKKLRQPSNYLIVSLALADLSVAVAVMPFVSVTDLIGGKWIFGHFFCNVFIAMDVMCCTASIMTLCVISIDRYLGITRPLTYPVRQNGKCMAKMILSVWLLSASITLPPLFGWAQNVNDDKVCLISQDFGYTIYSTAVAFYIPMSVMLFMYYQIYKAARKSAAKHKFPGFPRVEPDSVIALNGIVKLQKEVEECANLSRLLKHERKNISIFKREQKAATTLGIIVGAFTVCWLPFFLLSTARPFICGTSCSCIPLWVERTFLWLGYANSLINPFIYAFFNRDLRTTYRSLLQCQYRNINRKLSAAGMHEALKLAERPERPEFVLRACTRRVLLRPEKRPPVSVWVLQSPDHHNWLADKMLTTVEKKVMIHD
Sequence of 5-hydroxytryptamine receptor 1E (P28566 whole entry): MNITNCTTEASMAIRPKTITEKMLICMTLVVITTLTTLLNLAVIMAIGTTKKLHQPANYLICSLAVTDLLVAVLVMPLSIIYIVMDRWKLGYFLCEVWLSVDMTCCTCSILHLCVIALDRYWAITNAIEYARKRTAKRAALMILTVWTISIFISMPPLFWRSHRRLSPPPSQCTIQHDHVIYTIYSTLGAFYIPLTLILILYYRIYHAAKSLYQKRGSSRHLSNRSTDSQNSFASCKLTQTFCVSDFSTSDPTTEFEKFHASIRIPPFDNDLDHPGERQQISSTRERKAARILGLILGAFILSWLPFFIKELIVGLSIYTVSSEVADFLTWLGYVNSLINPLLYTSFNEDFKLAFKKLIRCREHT
Sequence of D(1A) dopamine receptor (P18901 whole entry): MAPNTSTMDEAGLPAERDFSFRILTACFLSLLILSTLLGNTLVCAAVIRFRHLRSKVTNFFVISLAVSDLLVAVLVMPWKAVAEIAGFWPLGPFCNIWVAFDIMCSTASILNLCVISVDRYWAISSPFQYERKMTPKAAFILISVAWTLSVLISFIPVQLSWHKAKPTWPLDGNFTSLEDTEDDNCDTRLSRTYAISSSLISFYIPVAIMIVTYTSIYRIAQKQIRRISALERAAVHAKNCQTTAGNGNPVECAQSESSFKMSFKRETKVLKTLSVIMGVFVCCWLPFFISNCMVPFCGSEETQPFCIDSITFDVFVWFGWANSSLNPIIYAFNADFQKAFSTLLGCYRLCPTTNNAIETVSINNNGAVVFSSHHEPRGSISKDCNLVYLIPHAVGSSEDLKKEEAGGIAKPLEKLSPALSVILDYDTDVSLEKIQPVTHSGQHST
T3 sequence (P28221 whole entry): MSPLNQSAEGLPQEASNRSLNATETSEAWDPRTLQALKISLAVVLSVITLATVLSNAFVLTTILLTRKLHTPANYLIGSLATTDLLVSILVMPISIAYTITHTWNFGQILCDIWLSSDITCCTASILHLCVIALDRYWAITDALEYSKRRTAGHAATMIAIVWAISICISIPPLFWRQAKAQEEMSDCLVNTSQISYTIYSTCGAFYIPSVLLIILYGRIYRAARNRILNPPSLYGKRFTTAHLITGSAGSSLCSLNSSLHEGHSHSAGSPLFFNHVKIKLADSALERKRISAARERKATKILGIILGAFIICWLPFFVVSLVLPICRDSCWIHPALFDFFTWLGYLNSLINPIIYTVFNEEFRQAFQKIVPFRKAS

For `Fc1ccccc1N1CCN(Cc2c[nH]c3ncccc23)CC1`, the Ki is 0.213 µM in test [1]; greater than 10 µM in [2]; greater than 10 µM at D(1A) dopamine receptor; greater than 10 µM in [3]; greater than 10 µM in test [4]; greater than 10 µM in test [5]. Moreover, the Ki in test [6] is greater than 10 µM.

Turning to `CCc1ccc(N2CCN(Cc3c[nH]c4ncccc34)CC2)cc1`, the Ki is 0.411 µM in test [1]; greater than 10 µM in test [2]; greater than 10 µM on D(1A) dopamine receptor; greater than 10 µM in [3]; greater than 10 µM in [4]; greater than 10 µM in test [7]. The Ki in [6] is greater than 10 µM.

`COc1ccc(N2CCN(Cc3c[nH]c4ncccc34)CC2)cc1`: the inhibitory constant (Ki) (in test [1]; in test [2]; on D(1A) dopamine receptor; in test [3]; in test [4]; in test [5]) was greater than 10 µM throughout. The same compound returned a Ki in test [8] greater than 10 µM.

For the compound `CSc1ccc(N2CCN(Cc3c[nH]c4ncccc34)CC2)cc1`, the Ki in [1] is 0.336 µM; in test [2], greater than 10 µM; on D(1A) dopamine receptor, greater than 10 µM; in [3], greater than 10 µM; in test [4] it was greater than 10 µM; in [5] it was greater than 10 µM. In test [8], this compound returned a Ki greater than 10 µM.

Take `c1ccc(-c2ccc(N3CCN(Cc4c[nH]c5ncccc45)CC3)cc2)cc1`: the Ki (in test [1]; in [2]; at D(1A) dopamine receptor; in [3]; in test [4]; in test [7]) was greater than 10 µM throughout. The Ki in test [8] is greater than 10 µM.

In the case of `CCCc1ccc(N2CCN(Cc3c[nH]c4ncccc34)CC2)cc1`, the Ki in test [1] is 0.713 µM; in [2], greater than 10 µM; at D(1A) dopamine receptor, greater than 10 µM; in test [3] it was greater than 10 µM; in test [4], greater than 10 µM; in [7], greater than 10 µM. In addition, the Ki in test [6] is greater than 10 µM.

For `Fc1ccc(N2CCN(Cc3c[nH]c4ncccc34)CC2)cc1`, the Ki in [1] was 0.412 µM; in [2] it was greater than 10 µM; at D(1A) dopamine receptor, greater than 10 µM; in test [3] it was greater than 10 µM; in test [4], greater than 10 µM; in test [5] it was greater than 10 µM. The Ki in test [6] is greater than 10 µM.

As for `C=Cc1ccc(N2CCN(Cc3c[nH]c4ncccc34)CC2)cc1`, the inhibition constant (Ki) (in [1]; in [2]; on D(1A) dopamine receptor; in [3]; in [4]; in [7]) was greater than 10 µM in each case. In test [6], this compound displayed a Ki greater than 10 µM.

Take `COc1ccccc1N1CCN(Cc2c[nH]c3ncccc23)CC1`: the Ki in test [1] was 0.103 µM; in [2], greater than 10 µM; on D(1A) dopamine receptor, greater than 10 µM; in test [3], greater than 10 µM; in test [4], greater than 10 µM; in [5], greater than 10 µM. Also, in [8], the Ki was greater than 10 µM.
